Measured values from ChEMBL document CHEMBL1149294, “A novel class of inhibitors of peptide deformylase discovered through high-throughput screening and virtual ligand screening” (J Med Chem, 2004).
Active and inactive are the calls of the source. The calls are words filed in the database; no cut-off is given here.

System: Glycine max
Assay: Inhibition of soybean PDF using PDF/FDH coupled spectrophotometric assay

| Compound | Activity |
| --- | --- |
| O=C(O)CCN1C(=O)/C(=C/c2cn(-c3ccccc3)nc2-c2ccccc2)SC1=S | inactive |
| COC(=O)CCCCCN1C(=O)/C(=C/c2cc(C)n(-c3ccccc3)c2C)SC1=S | inactive |
| Cc1ccc(-c2nn(-c3ccccc3)cc2/C=C2\SC(=S)N(CC(=O)O)C2=O)cc1 | inactive |

Target: T1, Peptide deformylase (Escherichia coli, UniProt Q9JN24)
T1 sequence (Q9JN24 whole entry): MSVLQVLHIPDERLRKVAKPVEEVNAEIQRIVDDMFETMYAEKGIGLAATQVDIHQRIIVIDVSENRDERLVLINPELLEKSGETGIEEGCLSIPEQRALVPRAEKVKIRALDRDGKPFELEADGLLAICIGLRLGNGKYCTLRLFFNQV
Assay: Inhibition of Escherichia coli PDF

| Compound | IC50 [µM] |
| --- | --- |
| Cc1cc(/C=C2\SC(=S)N(CCCCCC(=O)O)C2=O)c(C)n1-c1ccccc1 | > 30 |
| Cc1nn(-c2ccccc2)c(Cl)c1/C=C1\SC(=S)N(CCCCCC(=O)O)C1=O | > 30 |
| Cc1ccc(-c2nn(-c3ccccc3)cc2/C=C2\SC(=S)N(CCCCCC(=O)O)C2=O)o1 | > 30 |
| O=C(O)CCN1C(=O)/C(=C/c2cn(-c3ccccc3)nc2-c2ccccc2)SC1=S | > 30 |
| O=C(O)CCCCCN1C(=O)/C(=C/c2c[nH]c3ccccc23)SC1=S | > 30 |
| COc1ccccc1/C=C1\SC(=S)N(CCCCCC(=O)O)C1=O | > 30 |
| Cc1ccc(-c2nn(-c3ccccc3)cc2/C=C2\SC(=S)N(CC(=O)O)C2=O)cc1 | > 30 |
| CC(/C=C1\SC(=S)N(CCCCCC(=O)O)C1=O)=C\c1ccccc1 | > 30 |
| O=C(O)CCCCCN1C(=O)/C(=C/c2ccc(-c3ccc(Cl)c(Cl)c3)o2)SC1=S | > 30 |
| Cc1cc(/C=C2\SC(=S)N(CCCCCC(=O)O)C2=O)c(C)n1-c1ccc(Br)cc1 | > 30 |
| O=C(O)CCCCCN1C(=O)/C(=C/c2ccc(F)cc2)SC1=S | > 30 |
| COc1ccc(/C=C2\SC(=S)N(CCCCCC(=O)O)C2=O)cc1Br | > 30 |
| CCOc1cc(/C=C2\SC(=S)N(CCCCCC(=O)O)C2=O)ccc1O | > 30 |
| O=C(O)CCCCCN1C(=O)/C(=C/c2cn(-c3ccccc3)nc2-c2cccs2)SC1=S | > 30 |
| Cc1nn(CCC#N)cc1/C=C1\SC(=S)N(CCCCCC(=O)O)C1=O | > 30 |
| O=C(O)CCCCCN1C(=O)/C(=C/c2cn(-c3ccccc3)nc2-c2ccccc2)SC1=S | > 30 |
